From US20250213705A1, “PSMA TARGETING LIGANDS AND METHODS OF USE” (Bright Peak Therapeutics AG, priority 2023, published 2025)

How the values were obtained:
[1] = biological target: human FOLH1 (Homo sapiens (Human), UniProt Q04609); assay: SPR analysis of binding kinetics to biotinylated FOLH1 (Biacore 8K); details: ligand PSMA; for Kon: association rate; for koff: dissociation rate; for Kd: kinetic 1:1 binding model
Method: The interaction of PSMA-binding variants with human FOLH1 was measured with Surface Plasmon Resonance (SPR) technology. Biotinylated FOLH1 was captured at a concentration of 30 μg/mL onto a Streptavidin chip.
Binding kinetics of the analytes were measured with a Biacore 8K instrument in two-fold serial dilutions starting at 500 nM down to 1.95 nM in single cycle kinetic measurements. After each cycle, needles were washed with 50% DMSO. To measure the association to the FOLH1 protein, the samples were injected with a flow rate of 30 μL/min for 90 s, followed by 1200 s buffer only to detect the dissociation. The used running buffer was 1×PBS with 0.05% Tween20 and 2% DMSO. The relative response units (RU, Y-axis) are plotted against time (s, X-axis) and analyzed in a kinetic 1:1 binding model.
In a different setup, biotinylated FOLH1 was captured at a concentration of 0.8 μg/mL and the running buffer was 1×PBS with 0.05% Tween20.

[2] = biological target: Recombinant Human PSMA/FOLH1 Protein (Homo sapiens (Human), UniProt Q04609); assay: Inhibition assay (Amplex Red glutamic acid/glutamate oxidase, NAAG substrate); assay type: biochemical; details: Target PSMA, average of N replicates; for IC50: PSMA 5 nM, NAAG 40 μM; for Ki: calculated based on Cheng-Prusoff equation
Recombinant Human PSMA/FOLH1 Protein, sequence (Q04609 whole entry): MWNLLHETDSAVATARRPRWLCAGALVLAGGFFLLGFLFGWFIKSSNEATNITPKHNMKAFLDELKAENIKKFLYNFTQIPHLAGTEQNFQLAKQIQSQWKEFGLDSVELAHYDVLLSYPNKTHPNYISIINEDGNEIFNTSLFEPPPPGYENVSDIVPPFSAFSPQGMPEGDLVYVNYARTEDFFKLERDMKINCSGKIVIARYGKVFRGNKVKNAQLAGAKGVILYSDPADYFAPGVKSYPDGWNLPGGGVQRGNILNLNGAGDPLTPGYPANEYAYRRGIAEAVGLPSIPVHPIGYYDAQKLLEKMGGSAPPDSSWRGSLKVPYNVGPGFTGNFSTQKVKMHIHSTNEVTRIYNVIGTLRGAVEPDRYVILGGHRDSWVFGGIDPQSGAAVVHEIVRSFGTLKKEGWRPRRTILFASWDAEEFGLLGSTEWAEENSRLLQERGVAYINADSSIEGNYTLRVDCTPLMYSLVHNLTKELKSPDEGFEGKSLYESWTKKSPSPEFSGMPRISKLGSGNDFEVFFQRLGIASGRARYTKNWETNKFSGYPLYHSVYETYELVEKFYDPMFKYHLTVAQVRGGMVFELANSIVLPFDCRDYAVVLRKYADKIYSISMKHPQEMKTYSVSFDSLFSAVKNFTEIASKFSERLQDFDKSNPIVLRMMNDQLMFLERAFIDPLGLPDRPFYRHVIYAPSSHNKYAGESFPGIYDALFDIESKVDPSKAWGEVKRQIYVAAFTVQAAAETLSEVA
Method: Amplex™ Red Glutamic Acid/Glutamate Oxidase Assay Kit Catalog number: A12221 (Thermofisher); Recombinant Human PSMA/FOLH1 Protein, CF (rnd systems); N-Acetyl-Asp-Glu (NAAG) (Sigma Aldrich; 96 well half area plate; Enspire plate reader.
Prepare a working solution of 100 μM Amplex® Red reagent containing 0.25 U/mL HRP, 0.08 U/mL L-glutamate oxidase, 0.5 U/mL 1-glutamate-pyruvate transaminase, 200 μM L-alanine and keep protected from light. […] Final concentration is 5 nM. Transfer 10 μl/well of the inhibitor solution previously prepared in a separate 96 wells/plate.
Pipette 20 μl/well of the working solution prepared above. Incubate the reactions for 30 min at 37° C., protected from light. Because the assay is continuous (not terminated), fluorescence may be measured at multiple time points to follow the kinetics of the reactions. Measure the fluorescence in a fluorescence microplate reader using excitation in the range of 530-560 nm and emission detection at ˜590 nm. Ec50s were determined with GraphPad Prism. Ki is calculated based on Cheng-Prusoff equation.

human FOLH1, sequence (Q04609 whole entry): as above

Structure (SMILES) | Kon [1] | koff [1] | Kd [1] | IC50 [2] | Ki [2]
CC(=O)NCCOCCOCCOCCC(=O)NC[C@H]1CC[C@H](C(=O)N[C@@H](Cc2c[nH]c3ccccc23)C(=O)NCCCC[C@H](NC(=O)N[C@@H](CCC(=O)O)C(=O)O)C(=O)O)CC1 (stereo in doubt) [Compound 2] | 158000 1.ms | 3.3e-05 s⁻¹ | 0.208 nM | 25.1 nM | 0.18 nM
CC(=O)NCCOCCOCCOCCC(=O)N[C@@H]1C[C@@H](C(=O)N[C@@H](Cc2ccc3ccccc3c2)C(=O)NCCCC[C@H](NC(=O)N[C@@H](CCC(=O)O)C(=O)O)C(=O)O)N(C(=O)CCCOc2cc(C#N)cc(C#N)c2)C1 (stereo in doubt) [Compound 82] | 72200 1.ms | 0.000381 s⁻¹ | 5.27 nM | 1.8 nM | 0.0129 nM
CC(=O)NCCOCCOCCOCCC(=O)NC[C@H]1CC[C@H](C(=O)N[C@H](Cc2c[nH]c3ccccc23)C(=O)NCCCC[C@H](NC(=O)N[C@@H](CCC(=O)O)C(=O)O)C(=O)O)CC1 [Compound 5] | 195000 1.ms | 0.000543 s⁻¹ | 2.78 nM | 81.7 nM | 0.584 nM
CC(=O)NCCOCCOCCOCCC(=O)NC[C@H]1CC[C@H](C(=O)N[C@@H](Cc2ccc(-c3ccccc3)cc2)C(=O)NCCCC[C@H](NC(=O)N[C@@H](CCC(=O)O)C(=O)O)C(=O)O)CC1 [Compound 7] | 293000 1.ms | 0.00167 s⁻¹ | 5.72 nM | 171 nM | 1.23 nM
CC(=O)NCCOCCOCCOCCC(=O)NC[C@H]1CC[C@H](C(=O)N[C@@H](Cc2cccc(C(=O)O)c2)C(=O)NCCCC[C@H](NC(=O)N[C@@H](CCC(=O)O)C(=O)O)C(=O)O)CC1 [Compound 10] |  |  | 2.02 nM | 21.3 nM | 0.152 nM
CC(=O)NCCOCCOCCOCCC(=O)NC[C@H]1CC[C@H](C(=O)N[C@@H](Cc2c[nH]c3ccc(F)cc23)C(=O)NCCCC[C@H](NC(=O)N[C@@H](CCC(=O)O)C(=O)O)C(=O)O)CC1 [Compound 12] | 250000 1.ms | 0.000142 s⁻¹ | 0.568 nM | 41.5 nM | 0.297 nM
CC(=O)NCCOCCOCCOCCC(=O)NC[C@H]1CC[C@H](C(=O)N[C@@H](Cc2ccc(N)cc2)C(=O)NCCCC[C@H](NC(=O)N[C@@H](CCC(=O)O)C(=O)O)C(=O)O)CC1 [Compound 14] | 131000 1.ms | 0.000618 s⁻¹ | 4.71 nM | 286 nM | 2.05 nM
CC(=O)NCCOCCOCCOCCC(=O)NC[C@H]1CC[C@H](C(=O)N[C@@H](Cc2ccc(OCc3ccccc3)cc2)C(=O)NCCCC[C@H](NC(=O)N[C@@H](CCC(=O)O)C(=O)O)C(=O)O)CC1 [Compound 16] | 461000 1.ms | 0.00356 s⁻¹ | 7.73 nM | 331 nM | 2.37 nM
CC(=O)NCCOCCOCCOCCC(=O)NC[C@H]1CC[C@H](C(=O)N[C@@H](Cc2ccccc2)C(=O)NCCCC[C@H](NC(=O)N[C@@H](CCC(=O)O)C(=O)O)C(=O)O)CC1 [Compound 17] | 125000 1.ms | 0.000207 s⁻¹ | 1.65 nM | 92.6 nM | 0.662 nM
CC(=O)NCCOCCOCCOCCC(=O)NC[C@H]1CC[C@H](C(=O)N[C@@H](Cc2ccc(C(=O)O)cc2)C(=O)NCCCC[C@H](NC(=O)N[C@@H](CCC(=O)O)C(=O)O)C(=O)O)CC1 [Compound 21] | 183000 1.ms | 0.00194 s⁻¹ | 10.6 nM | 201 nM | 1.44 nM
CC(=O)NCCOCCOCCOCCC(=O)NC[C@H]1CC[C@H](C(=O)N[C@@H](Cc2ccc3ccccc3c2)C(=O)NCCCC[C@H](NC(=O)N[C@@H](CCCC(=O)O)C(=O)O)C(=O)O)CC1 [Compound 24] | 305000 1.ms | 0.0107 s⁻¹ | 35.2 nM | 3350 nM | 24 nM
CC(=O)NCCOCCOCCOCCC(=O)N(CCCOc1ccc(F)cc1F)CC(=O)NC[C@H]1CC[C@H](C(=O)N[C@@H](Cc2ccc3ccccc3c2)C(=O)NCCCC[C@H](NC(=O)N[C@@H](CCC(=O)O)C(=O)O)C(=O)O)CC1 [Compound 39] | 223000 1.ms | 0.00024 s⁻¹ | 1.08 nM | 50.5 nM | 0.361 nM
CC(=O)NCCOCCOCCOCCC(=O)N[C@@H](CCCOc1ccc(F)cc1F)C(=O)NC[C@H]1CC[C@H](C(=O)N[C@@H](Cc2ccc3ccccc3c2)C(=O)NCCCC[C@H](NC(=O)N[C@@H](CCC(=O)O)C(=O)O)C(=O)O)CC1 [Compound 40] | 153000 1.ms | 0.000249 s⁻¹ | 1.62 nM | 155 nM | 1.11 nM
C=CC[C@H](NC(=O)CCOCCOCCOCCNC(C)=O)C(=O)NC[C@H]1CC[C@H](C(=O)N[C@@H](Cc2ccc3ccccc3c2)C(=O)NCCCC[C@H](NC(=O)N[C@@H](CCC(=O)O)C(=O)O)C(=O)O)CC1 [Compound 41] | 102000 1.ms | 0.000199 s⁻¹ | 1.95 nM | 88.1 nM | 0.63 nM
CC(=O)NCCOCCOCCOCCC(=O)NC[C@H]1CC[C@H](C(=O)N[C@@H](Cc2ccc3ccccc3c2)C(=O)NCCCC[C@H](NC(=O)N[C@@H](CCc2n[nH]c(=O)o2)C(=O)O)C(=O)O)CC1 [Compound 48] |  |  | 1650 nM | 10300 nM | 73.5 nM
CC(=O)NCCOCCOCCOCCC(=O)NC[C@H]1CC[C@H](C(=O)N[C@@H](Cc2ccc3ccccc3c2)C(=O)NCCCC[C@H](NC(=O)N[C@@H](Cc2ccco2)C(=O)O)C(=O)O)CC1 [Compound 49] |  |  | 3080 nM | 16500 nM | 118 nM
CC(=O)NCCOCCOCCOCCC(=O)N[C@@H](CCCOc1cc(C#N)cc(C#N)c1)C(=O)NCC(=O)N[C@@H](Cc1ccc2ccccc2c1)C(=O)NCCCC[C@H](NC(=O)N[C@@H](CCC(=O)O)C(=O)O)C(=O)O [Compound 52] | 291000 1.ms | 0.000326 s⁻¹ | 1.12 nM | 26.1 nM | 0.187 nM
CC(=O)NCCOCCOCCOCCC(=O)N1C[C@H](NC(=O)COc2cc(C#N)cc(C#N)c2)C[C@H]1C(=O)N[C@@H](Cc1ccc2ccccc2c1)C(=O)NCCCC[C@H](NC(=O)N[C@@H](CCC(=O)O)C(=O)O)C(=O)O [Compound 79] | 137000 1.ms | 0.000515 s⁻¹ | 3.76 nM | 7.79 nM | 0.0557 nM
CC(=O)NCCOCCOCCOCCC(=O)N[C@@H]1C[C@@H](C(=O)N[C@@H](Cc2ccc3ccccc3c2)C(=O)NCCCC[C@H](NC(=O)N[C@@H](CCC(=O)O)C(=O)O)C(=O)O)N(C(=O)COc2cc(C#N)cc(C#N)c2)C1 [Compound 81] | 90000 1.ms | 0.000371 s⁻¹ |  |  | 
CC(=O)NCCOCCOCCOCCC(=O)N(CCCOc1cc(C(F)(F)F)cc(C(F)(F)F)c1)CC(=O)N[C@@H](Cc1ccc2ccccc2c1)C(=O)NCCCC[C@H](NC(=O)N[C@@H](CCC(=O)O)C(=O)O)C(=O)O [Compound 86] | 339000 1.ms | 0.000397 s⁻¹ |  |  | 
CC(=O)NCCOCCOCCOCCC(=O)N(CCCCOc1cc(C#N)cc(C#N)c1)CC(=O)N[C@@H](Cc1ccc2ccccc2c1)C(=O)NCCCC[C@H](NC(=O)N[C@@H](CCC(=O)O)C(=O)O)C(=O)O [Compound 87] | 272000 1.ms | 0.000136 s⁻¹ | 0.5 nM | 1480 nM | 10.6 nM
CC(=O)NCCOCCOCCOCCC(=O)N(CCCCOc1cc(C(F)(F)F)cc(C(F)(F)F)c1)CC(=O)N[C@@H](Cc1ccc2ccccc2c1)C(=O)NCCCC[C@H](NC(=O)N[C@@H](CCC(=O)O)C(=O)O)C(=O)O [Compound 88] | 215000 1.ms | 0.000329 s⁻¹ | 1.53 nM | 63.3 nM | 0.452 nM
CC(=O)NCCOCCOCCOCCC(=O)N1C[C@H](NC(=O)CCCOc2cc(C#N)cc(C#N)c2)C[C@H]1C(=O)NCC(=O)N[C@@H](Cc1ccc2ccccc2c1)C(=O)NCCCC[C@H](NC(=O)N[C@@H](CCC(=O)O)C(=O)O)C(=O)O [Compound 91] | 71500 1.ms | 0.000258 s⁻¹ |  |  | 
CC(=O)NCCOCCOCCOCCC(=O)N[C@@H]1C[C@@H](C(=O)NCC(=O)N[C@@H](Cc2ccc3ccccc3c2)C(=O)NCCCC[C@H](NC(=O)N[C@@H](CCC(=O)O)C(=O)O)C(=O)O)N(C(=O)CCCOc2cc(C#N)cc(C#N)c2)C1 [Compound 92] | 297000 1.ms | 0.000301 s⁻¹ |  |  | 
CC(=O)NCCOCCOCCOCCC(=O)N[C@@H](Cc1ccc(C(=O)O)cc1)C(=O)NCC(=O)N[C@@H](Cc1ccc2ccccc2c1)C(=O)NCCCC[C@H](NC(=O)N[C@@H](CCC(=O)O)C(=O)O)C(=O)O [Compound 94] | 112000 1.ms | 0.000261 s⁻¹ |  |  | 
